Experimental data as given in patent US20070275953A1 (priority 2003, published 2007).
Like-named read-outs stand apart in the source and are kept apart here.

How the values were obtained:
Format in all cases: cell-based
[1] = system: HIV-1 mutant Cys181RT in TZM-bl cells; experiment: Anti-HIV assay on TZM-bl cells, Cys181RT mutant; details: read-out: EC50 Cys181RT TZM-bl
From the text: (§1) In order to introduce mutation(s) at the level of the pol gene coding for the RT in the pNL4-3 plasmid containing the complete viral genome (Adachi et al., 1986. J. Virol., Vol. 59 p 284-291) we used the “Quick change mutagenesis kit” (Stratagene). The following mutations were separately introduced in pNL4-3: L100I, K103N, V108I, Y181C, Y188C, and the double mutations K103N/V108I. These mutations were chosen because of the resistance that they confer to existing NNRTI. The production procedure of the mutant viral stocks is identical to the one described above.
Anti-HIV activity and cytotoxicity of the compounds were tested on the TZM-b1 cell line. The TZM-b1 cell line (Wei et al. 2002. Antimicrob. Agents Chemother. Vol. 46, p 1896-1905) was received from the NIH AIDS Research and Reference Reagent Program. These cells were cultured in complete DMEM medium supplemented with 10% fetal bovine serum (FBS), and 1% Penicillin/Streptomycin. Exponentially growing cells were trypsinized, centrifuged and split twice weekly at 5 10^4 cells/ml.
The anti-HIV assay with TZM-b1 cells is essentially the same as described above with P4 cells. The main difference between the two cell lines is that the TZM-b1 cells express at their surface both the CD4 and CCR5 proteins, acting as receptor and co-receptor for HIV entry, respectively (Wei et al. 2002. Antimicrob. Agents Chemother. Vol. 46, p 1896-1905). This feature makes the cells very sensitive to infection by the virus. The TMZ-b1 cells were infected with equal amount of cell-free virus, corresponding to 10 ng of HIV p24 antigen. This amount is ten times lower than the amount used to infect the P4 cells.

[2] = system: HIV-1 with WT (wild type) RT in MT4 cells; experiment: Anti-HIV assay on MT4 cell line, WT RT
Method: Wurzburg Jurkat T cells (subclone JR) were transfected with 10 μg of the circularly permuted infectious molecular clone HIVNL4-3 (Adachi et al., 1986. J. Virol, 59 (2), p 284-291). Two days later, co-cultivation with SupT1 cells (a human T-cell lymphoma cell line) was initiated to facilitate rapid production of progeny virions. Production of virus was measured by using the Innotest HIV Antigen mAb p24 kit (Innogenetics). At the peak of production cultures were harvested and filtered. The virus stocks were stored at −80° C. until used.
(§2) Anti-HIV activity of the compounds was tested on MT-4 cell line. The MT-4 cell line (Larder et al. 1989. Sciences, Vol. 243 p 1731) was received from the NIH AIDS Research and Reference Reagent Program. These cells were cultured in RPMI medium supplemented with 10% fetal bovine serum (FBS), and 1% Penicillin/Streptomycin. The cultures were split regularly to keep cells densities between 0.3 to 1.2 10^6 cells/ml.
(§3) The MT-4 cells rapidly die upon infection by HIV. In this system there is an inverse correlation between cells survival and the amount of viral replication.
(§4) Briefly, in the anti-HIV assay exponentially growing MT-4 cells were infected with HIV-1. 100 μl of infected MT-4 cells were seeded in 96-well plate at a concentration of 0.4 10^5 cells/ml, and 100 μl of the different drugs dilutions were added to the cells. After 4 days of incubation at 37° C., 5% CO2, cells survival was measured using MTS (3-(4-5-dimethylthiazol-2-yl)-5-(−(3-carboxymethoxyphenyl)-2-(4-sulfophenyl)-2H-tetrazolium) assays. This compound is reduced by viable cells in a colored soluble formazan salt.
(§5) The absorbance was measured on a Benchmark™ Microplate Reader (Biorad) (λ=490 nm) and compared with 12 cell control replicates (nor virus nor drug added) and 12 virus control wells (no drug added). Each assay was performed a minimum of three times. The 50% effective concentration (EC50) was calculated from each dose response curve using the CurveExpert 1.3 software.

[3] = system: HIV-1 mutant Asn103RT in MT4 cells; experiment: Anti-HIV assay on MT4 cells, Asn103RT mutant
From the text: as §1, §2, §3, §4, §5

[4] = system: HIV-1 mutant Cys181RT in MT4 cells; experiment: Anti-HIV assay on MT4 cells, Cys181RT mutant
From the text: as §1, §2, §3, §4, §5

[5] = system: HIV-1 mutant Asn103/Ile108RT in MT4 cells; experiment: Anti-HIV assay on MT4 cells, Asn103/Ile108RT double mutant
From the text: as §1, §2, §3, §4, §5

[6] = system: HIV-1 mutant Cys181RT in P4 cells; experiment: Anti-HIV assay on P4 cells, Cys181RT mutant
From the text: as §1
Anti-HIV activity and cytotoxicity of the compounds were tested on a P4 cell line. The P4 cell line (Clavel & Charneau, 1994. J. Virol., Vol. 68 p 1179-1185) was provided by Dr. François Clavel (Unité de recherche antivirale de l'hôpital Xavier Bichat Paris: Inserm). The P4 cells were cultured in complete DMEM medium supplemented with 10% fetal bovine serum (FBS), 0.5% of Penicillin/Streptomycin and G418 at 0.5 mg/ml. Exponentially growing cells were trypsinized, centrifuged and split twice weekly at 5.10^4 cells/ml.
The P4 cells are HIV-infectible Hela-CD4 cells that carry the bacterial lacZ gene under the control of the HIV-1 long terminal repeat (LTR). In this cell line, transcription of the LacZ gene is driven by the HIV-1 LTR. As such, the cytoplasmic accumulation of β-galactosidase is strictly dependent on the presence of the HIV transactivator Tat produced during the intracellular viral replication (Clavel & Charneau, 1994. J. Virol., Vol. 68, p. 1179-1185). In other words, in this system, the expression level of the β-galactosidase gene is proportional to the viral replication.
Briefly, in the anti-HIV assay 100 Ål of P4 cells were plated in 96-well plate at a concentration of 0.4 10^5 cells/ml and incubated at 37° C., 5% CO2. After 48 h, the medium was removed and 100 Ål of the different drugs dilutions were added to the cells. Four hours after the addition of the drugs all cells were infected with equal amount of cell-free virus, corresponding to 100 ng of HIV p24 antigen. After 48 h of incubation at 37° C., 5% CO2, β-galactosidase activity was measured using chlorophenol red-β-D-galactopyranoside assays.
as §5, with “(λ=570” for “(λ=490”, “(no” for “(nor”, “or” for “nor”, “(Ec50)” for “(EC50)”, “software. As Nevirapine activity corresponds to its published values (10-100 nM), the data are consistent with other measures of viral replication.” for “software.”

[7] = Human immunodeficiency virus 1, TZM-bl
[8] = Human immunodeficiency virus 1, MT4, read-out: EC50 Asn103RT MT4
[9] = Human immunodeficiency virus 1, MT4, read-out: EC50 Cys181RT MT4
[10] = Human immunodeficiency virus 1, MT4, read-out: EC50 Asn103/Ile108RT MT4
[11] = Human immunodeficiency virus 1, read-out: EC50 Cys181RT P4
[12] = P4, mutant Cys181RT, read-out: EC50 Cys181RT P4
[13] = MT4, double mutant Asn103/Ile108RT

For `O=C1Nc2ccc(Cl)cc2[C@@](C#CC2CC2)(C(F)(F)F)O1` [Efavirenz, reference compound], the EC50 [1, 7] was < 1 nM, the EC50 ([2]; Human immunodeficiency virus 1) was < 1 nM and the EC50 [3, 8] was 5 nM. For the same compound, the EC50 [4, 9] was < 1 nM, the EC50 [5, 10] was 1190 nM and the EC50 [6, 11] was < 1 nM.

In the case of `CCc1c(C)[nH]c(=O)c(C)c1OC1CC(C)CC(C)C1` (centres unmarked) [Z154], the EC50 ([1]; TZM-bl, mutant Cys181RT) is reported as 288 nM and the EC50 [2] is reported as < 1 nM.

`CCc1c(C)[nH]c(=O)c([N+](=O)[O-])c1OC1CC(C)CC(C)C1` (centres unmarked) [Z91inv, 3-nitro-5-ethyl-6-methyl-4-[(3,5-dimethylcyclohexyl)oxy]pyridine-2(1H)-one] was tested, and the EC50 [1, 7] was 58 nM, the EC50 ([2]; Human immunodeficiency virus 1) was < 1 nM and the EC50 [3, 8] was 980 nM. It also gave an EC50 [4, 9] of 2440 nM, an EC50 [5, 10] of 9900 nM and an EC50 [6, 11] of 46 nM.

`CCc1c(C)[nH]c(=O)c(CO)c1OC1CC(C)CC(C)C1` (centres unmarked) [Z45inv] gave an EC50 ([1]; TZM-bl, mutant Cys181RT) of 3200 nM and an EC50 [6, 12] of 496 nM.

`CCc1c(C)[nH]c(=O)c(N(C)C)c1OC1CC(C)CC(C)C1` (centres unmarked) [Z150, 3-(dimethylamino)-5-ethyl-6-methyl-4-[(3,5-dimethylcyclohexyl)oxy]pyridine-2(1H)-one] was tested, and the EC50 [1, 7] was 86 nM, the EC50 ([2]; Human immunodeficiency virus 1) was < 1 nM and the EC50 [3, 8] was < 1 nM. The EC50 [4, 9] was 320 nM, the EC50 [5, 10] was 958 nM and the EC50 [6, 11] was 61 nM.

For `CCc1c(C)[nH]c(=O)c(CSC(C)=O)c1OC1CC(C)CC(C)C1` (centres unmarked) [Z114], the EC50 ([1]; TZM-bl, mutant Cys181RT) was 411 nM, the EC50 [2] was 136 nM and the “EC50 Asn103RT MT4” value ([3]; MT4, mutant Asn103RT) was “inactive”. The “EC50 Cys181RT MT4” value ([4]; MT4, mutant Cys181RT) was “Inactive”, the “EC50 Asn103/Ile108RT MT4” value [5, 13] was “inactive” and the EC50 [6, 12] was 87 nM.

`CCOC(=O)c1c(OC2CC(C)CC(C)C2)c(CC)c(C)[nH]c1=O` (single isomer, unassigned) [Z37inv] was tested, and the EC50 ([1]; TZM-bl, mutant Cys181RT) was 2540 nM and the EC50 [6, 12] was 1970 nM.

Compound `CCc1c(C)[nH]c(=O)c(CN=[N+]=[N-])c1OC1CC(C)CC(C)C1` (centres unmarked) [Z153] has an EC50 ([1]; TZM-bl, mutant Cys181RT) of 83 nM, an EC50 ([3]; MT4, mutant Asn103RT, read-out: EC50 Asn103RT MT4) of 150 nM and an EC50 ([4]; MT4, mutant Cys181RT, read-out: EC50 Cys181RT MT4) of 780 nM. For the same compound, the EC50 ([5]; MT4, double mutant Asn103/Ile108RT, read-out: EC50 Asn103/Ile108RT MT4) was 3480 nM and the EC50 [6, 12] was 108 nM.

For `Cc1ccnc2c1NC(=O)c1cccnc1N2C1CC1` [Nevirapine, reference compound], the EC50 [1, 7] was 8300 nM, the EC50 ([2]; Human immunodeficiency virus 1) was 575 nM and the EC50 [3, 8] was > 25000 nM. For the same compound, the “EC50 Cys181RT MT4” value ([4]; MT4, mutant Cys181RT) was “Inactive”, the “EC50 Asn103/Ile108RT MT4” value [5, 13] was “inactive” and the EC50 [6, 11] was 10000 nM.
